Measurements as given in US10111884B2, “Methods and compositions for treating viral infections” (THE HONG KONG UNIVERSITY OF SCIENCE AND TECHNOLOGY, priority 2012, dated 2018).
Where two headings read alike, the source gives them in different places.

Key:
CMV [1] = experiment: CMV plaque reduction assay in HFF monolayers; assay type: cell-based, human cytomegalovirus
Description: The CMV strains used were: AD169 (obtained from the American Type Culture Collection), and TB40/E. In addition, low-passage clinical isolates CI704, and CI893, recovered at the Hadassah Clinical Virology Laboratory from the urine of congenitally-infected newborns, and propagated for 3-5 passages, were used for some experiments. All CMV strains were propagated and titered in human foreskin fibroblasts (HFF) cells. Cell-free virus stocks and cell-associated clinical isolates were maintained at −70° C. Viral stocks were titered by serial 10-fold dilution in 24-well tissue culture plates containing HFF monolayers overlaid with agarose-medium. After incubation for 7 to 10 days, plaques were enumerated, and virus titer was determined as plaque forming units (PFU) per milliliter (ml). Stocks of artemisone, artemiside, RW177, compound IX, and artesunate were freshly prepared at 10 mM concentration in DMSO. Ganciclovir, stored as 10 mM stock was used in comparative assays.
Cell monolayers were inoculated in 24-well culture plates with 0.2 ml of virus suspension containing 60 to 100 PFU per well. After adsorption for 60 min at 37° C., the inoculum was removed, and culture medium was replaced with agarose-medium overlay containing the tested drug. The following final drug concentrations were used: Artemisone: 0, 0.1, 1, 5, 10, 25, and 50 μM; Artesunate: 0, 1, 5, 10, 25, 50, and 100 μM; Ganciclovir, artemiside, compound IX and RW177: 0, 0.1, 1, 5, 10, 25, and 50 μM. Plates were incubated for 10 days at 37° C. in a 5% CO2 incubator. Plaques were then counted microscopically. The drug concentration required to reduce the number of plaques to 50% of the control value (IC50), was calculated.
(§1) Antiviral activity of artemisone was determined by applying various drug concentrations to a growing virus in cell culture, using a standard plaque reduction assay. Artesunate, a compound known to have significant anti-viral activity, was tested in parallel. Ganciclovir was used as an additional positive control. The IC50 values of at least three separate experiments with each drug and virus were averaged, and the results are reported as mean±standard deviation values. Representative curves of plaque reduction assay for artemisone and artesunate are depicted in FIGS. 2A and 3A, respectively.

HCMV strain TB40/E = experiment: Antiviral drug susceptibility in ex-vivo HCMV-infected decidual organ cultures (normalized viral DNA); assay type: cell-based, human cytomegalovirus; conditions: Human betaherpesvirus 5, TB40/E 10^5 PFU/well, 8 dpi, read-out: IC50 (drug concentration required to reduce normalized tissue viral DNA copy number by 50%)
Description: For infection of decidual organ cultures, the tissues were placed in 48-well plates (˜5 slices/well to maintain optimal viability) immediately after the sectioning and inoculated with the indicated virus (10^4 plaque forming units/well, unless indicated otherwise) for 12 hours to allow effective viral adsorption. Following viral adsorption, the cultures were washed extensively and further incubated for the duration of the experiment with replacement of the culture medium every 2-3 days.
DNA and RNA were extracted from the samples using the QIAamp DNA Mini Kit extraction kit and RNeasy Mini Kit (QIAGEN, Hilden, Germany) respectively, according to the manufacturer's instructions. The purified DNA samples were subjected to a quantitative real-time PCR reaction on a 7900HT Real Time PCR system (Applied Biosystems, Foster City, Calif., USA), using primers and probes derived from the HCMV glycoprotein B (gB) as described in Boeckh et al., 2004, J. Clin. Microbiol., 42, 1142-1148. […] The purified RNA samples were subjected to reverse transcription using GoScript™ (Promega, Madison, USA), followed by quantitative real-time PCR of the late HCMV R160461 spliced mRNA as described in White et al., 2004, J. Virol., 78, 1817-1830. […]

[2] = test system: human foreskin fibroblasts (HFF) cells; experiment: Cytotoxicity observed alongside plaque reduction assay; assay type: cell-based
CMV [3] = experiment: CMV antiviral activity in retinal epithelial cells (RPE) culture; assay type: cell-based, human cytomegalovirus
Description: as §1

CMV [4] = experiment: Quantification of viral DNA in infected cells by real-time PCR (CMV gB gene); assay type: cell-based, human cytomegalovirus; conditions: FIGS. 2B, 3B
Description: Viral DNA quantity in infected cells with and without added drugs (expressed as genome copies/well) was determined by real-time PCR assay, following DNA extraction from cells, with the use of primers and probe derived from the CMV gB gene.
The results of Example 1 were confirmed by quantitation of viral DNA using real-time PCR. […] Representative curves of viral DNA accumulation for artemisone and artesunate are depicted in FIGS. 2B and 3B, respectively.

[5] = test system: HCMV strain AD169 IE1/2 antigen; experiment: Immunofluorescence assay of viral immediate early (IE1/2) gene expression; assay type: cell-based, human cytomegalovirus; conditions: 24 hpi; for viral IE gene expression (in words): 25 μM
Description: (§2) Human foreskin fibroblasts (HFF) were infected with HCMV strain AD169. At 1 hour post infection (hpi), artemisone (25 μM) or ganciclovir (25 μM) were added to the growth medium, and the cells were further incubated in the presence of the drug, until prepared for immunofluorescence analysis at 24 and 72 hpi—to analyze the expression of IE and pp65, respectively. Control untreated infected cells, and mock-infected cells were analyzed in parallel.
(§3) Cells grown on 8-well glass slides were infected at a multiplicity of infection (moi) of 0.1 PFU/cell. Supernatant was removed at 24 and 72 hpi, and cells were washed 3 times with PBS and fixed with 3.7% formaldehyde for 30 minutes at room temperature. Cells were washed 5 times with PBS+1% NH4Cl, permeabilized by 0.1% TX100 for 5 minutes and washed 5 times with PBS+1% NH4Cl. After 1 hour of blocking using 1% BSA in PBS, the indicated primary monoclonal antibodies (IE1/2 or pp65) were added to the cells in appropriate dilution in 0.5% BSA in PBS and incubated either at room temperature for 2 hours or overnight at 4° C. The secondary antibody was added to the cells in appropriate dilution in PBS containing 0.5% BSA for 30 minutes at room temperature and washed by PBS.
(§4) Following mounting with commercial mounting media, with addition of 4′,6-diamidino-2-phenylindole (DAPI) nuclear stain (yielding nuclear blue stain in all cells), the cells were analyzed by fluorescence microscopy. Results were monitored on at least 3 independent experiments, scoring at least 5 fields (of between 500 and 800 cells each) for each treatment arm.

[6] = test system: HCMV strain AD169 pp65 antigen; experiment: Immunofluorescence assay of viral late (pp65) gene expression; assay type: cell-based, human cytomegalovirus; conditions: 72 hpi; for viral late (pp65) gene expression (in words): 25 μM
Description: as §2, §3, §4

[7] = male rats, 50 mg/kg for 14 days; cited from earlier work
[8] = preclinical in vitro and in vivo screens; cited from earlier work
human endothelial cells = conditions: D'Alessandro et al., 2007; cited from earlier work
[9] = Human betaherpesvirus 5, 240 h, read-out: IC50 (drug concentration required to reduce the number of plaques to 50% of control), mean ± standard deviation
[10] = IE1 ± IE2 antigen, drug 25 μM, HFF, AD169
[11] = pp65 antigen, drug 25 μM, HFF, AD169

| Compound | IC50 (CMV [1]; [9]) [nM] | IC50 (HCMV strain TB40/E) [nM] | viral IE gene expression (in words) [5] | CMV antigen-positive cells (%) [5, 10] [%] | viral late (pp65) gene expression (in words) [6] | CMV antigen-positive cells (%) [6, 11] [%] | other results |
| --- | --- | --- | --- | --- | --- | --- | --- |
| CC1CCC2[C@@H](C)[C@H](NS(N)(=O)=O)OC3O[C@]4(C)CCC1C32OO4 (stereo partly drawn) [compound IX] | – | – | – | – | – | – | IC50 (CMV [1]; Human betaherpesvirus 5, 240 h, at least three separate experiments averaged, 10 days incubation, read-out: IC50 (drug concentration required to reduce the number of plaques to 50% of control), mean ± standard deviation): 2100 ± 600 nM |
| C[C@H]1[C@H](OC(=O)CCC(=O)O)O[C@@H]2O[C@@]3(C)CC[C@H]4[C@H](C)CC[C@@H]1[C@@]24OO3 [Artesunate, artesunate, reference compound] | 10800 ± 4200 | – | – | – | – | – | IC50 (CMV [1]; Human betaherpesvirus 5, read-out: IC50 value for this assay (inhibition of CMV plaque formation, dose response curve)): 15000 nM |
| Nc1nc2c(ncn2COCCO)c(=O)[nH]1 [acyclovir] | – | 18300 | – | – | – | – | – |
| C[C@H]1[C@H](N2CCSCC2)O[C@@H]2O[C@@]3(C)CC[C@H]4[C@H](C)CC[C@@H]1[C@@]24OO3 [artemiside, reference compound] | > 40000 | – | – | – | – | – | – |
| CC1CCC2[C@@H](C)[C@H](N3CCS(=O)(=O)CC3)OC3O[C@]4(C)CCC1C32OO4 (stereo in doubt) [Artemisone] | 900 ± 300 | – | significant reduction | 0 | highly efficient reduction | 0 | IC50 (CMV [1]; Human betaherpesvirus 5, representative curve, FIG. 2A / FIG. 3A, read-out: IC50 value for this assay (inhibition of CMV plaque formation, dose response curve)): 1200 nM; cytotoxicity [2]: no cytotoxicity; antiviral activity compared to artesunate (CMV [3]): Superior antiviral activity; antiviral efficacy by quantitation of viral DNA (CMV [4]): far superior to that of artesunate; tolerability [7]: no effect as compared to controls; neurotoxicity [8]: does not elicit neurotoxicity; anti-angiogenic effect compared to dihydroartemisinin (human endothelial cells): significantly less anti-angiogenic than dihydroartemisinin |
| Nc1nc(O)c2ncn(COC(CO)CO)c2n1 [Ganciclovir, ganciclovir] | – | 1500 | did not inhibit IE gene expression | 5.97 | highly efficient reduction | 0.18 | CMV antigen-positive cells per field (N) [5, 10]: 33 ± 5; CMV antigen-positive cells per field (N) [6, 11]: 1 ± 0.25 |
